Measurements published in the NIST ThermoML archive (doi:10.1016/j.tca.2014.03.033).
± gives the expanded uncertainty stated by the source.

Experiment: molar heat capacity at constant pressure
Conditions: 101.33 kPa, Crystal, Vacuum adiabatic calorimetry

O=P([O-])([O-])[O-].O=P([O-])([O-])[O-].O=P([O-])([O-])[O-].[K+].[Th+4].[Th+4] [potassium dithorium trisphosphate]
Conditions	molar heat capacity at constant pressure [J/K/mol]
4 K	0.316 ± 0.013
5 K	0.395 ± 0.014
6 K	0.4889 ± 0.014
7 K	0.5352 ± 0.015
8 K	0.4432 ± 0.014
9 K	0.3222 ± 0.013
10 K	0.3252 ± 0.013
15 K	2.606 ± 0.03
20 K	6.715 ± 0.052
25 K	12.67 ± 0.07
30 K	19.97 ± 0.09
35 K	28.47 ± 0.1
40 K	37.38 ± 0.12
45 K	46.43 ± 0.14
50 K	56.01 ± 0.16
60 K	73.35 ± 0.19
70 K	91.89 ± 0.23
80 K	109.4 ± 0.3
90 K	125.4 ± 0.3
100 K	140 ± 0.3
110 K	153.5 ± 0.4
120 K	166.2 ± 0.4
130 K	178 ± 0.4
140 K	189.2 ± 0.4
150 K	199.8 ± 0.4
160 K	209.9 ± 0.4
170 K	219.6 ± 0.4
180 K	229 ± 0.4
190 K	238.2 ± 0.4
200 K	247.3 ± 0.5
210 K	256 ± 0.5
220 K	264.2 ± 0.5
230 K	271.8 ± 0.5
240 K	278.6 ± 0.5
250 K	284.7 ± 0.5
260 K	290.3 ± 0.5
270 K	295.7 ± 0.5
273.15 K	297.5 ± 0.5
280 K	301.3 ± 0.5
290 K	307.4 ± 0.5
